According to patent US20240374763A1, “DIAGNOSIS AND MONITORING USING EXTRADOMAIN-B FIBRONECTIN TARGETED PROBES” (Case Western Reserve University, priority 2020, published 2024):
No end group written: not given here.

How the values were obtained:
Type in all cases: in vivo, mice
DLD-1 tumors = assay: MRMI of EDB-FN with MT218, DLD-1 xenografts; conditions: 40 μmol/kg MT218, 25 min post-injection
Method: Nude athymic mice (6-week-old nu/nu females) were purchased from The Jackson Laboratory (Bar Harbor, […]) and housed in the Animal Facility at CWRU. All the animal experiments were performed according to the protocol approved by the IACUC of CWRU. For assessment of drug resistance, 2 drug-resistant and 2 non-drug-resistant models were set up. About 3-4×10^6 DLD-1, RKO, DLD1-DR, and RKO-DR cells suspended in Matrigel-PBS mixture (1:1) were subcutaneously injected in the left flanks of nude mice (100 μL per mouse, 5 mice per group×4 models=20 mice). After 9 days when the tumors reached 100-200 mm3, MRMI was performed on the 4 xenograft models with 40 μmol/kg dose of MT218. The animals were then euthanized, and the tumors were harvested for post-mortem histology and IHC.
MT218 was synthesized as previously described. Ayat, N. R., et al., ACS Med Chem Lett, 2018. 9(7): p. 730-735. Briefly, click reaction between alkynyl-ZD2 and N3-Gd(HP-DO3A) was performed in the presence of CuSO4 and ascorbate at room temperature, followed by FLASH chromatography purification and validation of MT218 by MALDI-TOF mass spectrometry (m.w. 1443). […] Contrast-to-noise ratios (CNRs) were calculated as (mean tumor intensity—mean muscle intensity)/standard deviation of noise. […]

SCC4 tumors = assay: MRMI of OSCC flank xenografts, SCC4; conditions: MT218 0.04 mmol/kg
Method: Animal experiments were performed under an animal protocol approved by the Institutional Animal Care and Use Committee (IACUC) at Case Western Reserve University (CWRU, Cleveland, OH, USA). Female 4-week-old athymic nude mice purchased from the Jackson Laboratory (Bar Harbor, ME, USA) were housed in the Animal Core Facility at CWRU. Anesthetized mice were subcutaneously inoculated in the right flank with 4×10^6 GFP/luciferase-expressing OSCC cells (n=5 per cell line) in 100 μL of a 1:1 mixture of Matrigel HC (Corning) and DPBS. Tumor size was monitored with caliper measurements. After 4 weeks of growth, tumors were sufficiently large for MRI experiments.
MRI experiments were performed with a 3T MRS-3000 system (MR Solutions, Surrey, UK). […] This protocol was repeated on the same mice 2 days later using the untargeted clinical agent gadoteridol at the clinical dose of 0.10 mmol/kg.
Images were exported in DICOM format and analyzed using FIJI. Contrast-to-noise ratio (CNR) for each time point was calculated as the difference between the mean tumor intensity and the mean muscle intensity, divided by the standard deviation of noise.

LNCaP tumors = assay: MRMI with MT218, LNCaP xenografts; conditions: 0.04 mmol Gd/kg, 20 min post-injection
From the text: (§1) Xenograft models were established by subcutaneous flank injections in athymic nu/nu mice for the 4 prostate cancer cells and tested with MRMI using 0.04 mmol Gd/kg of MT218.

LNCaP-CXCR2 tumors = assay: MRMI with MT218, LNCaP-CXCR2 xenografts; conditions: 0.04 mmol Gd/kg, 20 min post-injection
From the text: as §1

C4-2 tumors = assay: MRMI with MT218, C4-2 xenografts; conditions: 0.04 mmol Gd/kg, 20 min post-injection
From the text: as §1

MDA-MB-231 tumors = assay: MRMI-mediated monitoring of therapeutic response, MDA-MB-231 tumors; conditions: pretreatment MDA-MB-231 tumors, MT218 0.1 mmol/kg, first 30 min
Method: (§2) The targeted MRI contrast agent ZD2-N3-Gd(HP-DO3A) (MT218) was provided by Molecular Theranostics (Cleveland, OH) and was synthesized. MR images of the mice bearing MDA-MB-231 or Hs578T tumors were acquired on a 3T MRS 3000 scanner (MRS Solutions, Surrey, UK) with a mouse short quad coil. T1-weighted images were acquired following intravenous injection of MT218 at dose of 0.1 mmol/kg using a fast spin echo (FSE) axial sequence with respiratory gating (TR=305 ms, TE=11 ms, FA=90°, FOV=40×40 mm, slice thickness=1 mm, slice number=15, Nav=2, matrix=256×256). Images were acquired before and at 10, 20, and 30 min after injection of MT218. MRMI was performed before the treatment and then at week 6 post-nanoparticle treatments for MDA-MB-231 and Hs578T tumors. MRI data and image processing was conducted using FIJI (FIJI is just ImageJ) software. The contrast-to-noise ratios (CNRs) of tumors were calculated as the difference of the mean tumor intensity and the mean muscle intensity divided by the standard deviation of the noise.

Hs578T tumors = assay: MRMI-mediated monitoring of therapeutic response, Hs578T tumors; conditions: pretreatment Hs578T tumors, MT218 0.1 mmol/kg, first 30 min
Method: as §2

ZD2-N3-Gd(HP-DO3A) (TVRTSAD; also: conjugated to Gd(HP-DO3A) by click reaction of alkynyl-ZD2 with N3-Gd(HP-DO3A), residue of attachment not given here, Gd complex) [MT218, EDB-FN-targeted MRI contrast agent; ZD2 peptide conjugated to the clinical macrocyclic agent Gd(HP-DO3A)]
increase in CNRs over the pre-contrast (DLD-1 tumors): 1.53 fold
average maximum enhancement (CNR) (SCC4 tumors): 3.81±0.25
increase in CNR (LNCaP tumors): negligible
increase of CNR (LNCaP-CXCR2 tumors): ~3 fold
increase of CNR (C4-2 tumors): ~3 fold
signal enhancement vs pre-contrast (MDA-MB-231 tumors): Strong signal enhancement
signal enhancement vs pre-contrast (Hs578T tumors): Strong signal enhancement
